Data on 2 molecules can be found in US9555040B2, “Methods of treating proliferative diseases” (Ambit Biosciences Corporation, priority 2009, dated 2017).

A short description of series [1]: Phase I clinical trial: plasma pharmacokinetics. The series is classed as in vivo, human. The procedure:
In addition, plasma samples were collected on day 15 (˜24 hrs post final dose) to evaluate steady-state trough levels. Bioanalysis of the compound was initially conducted at Consolidated Laboratory Services (CLS), Van Nuys, Calif. […] The coefficient of variation (CV %) for AUCO-24 at steady-state is modest at the lowest dose of 12 mg (33%) and high for the 450 mg cohort (82%). While the variability tended to be higher at higher doses, there was not a clear relationship between variability and either dose or […].
This analysis was conducted at MicroConstants, San Diego, Calif.

Series [2] in a line: Phase I clinical trial: safety, tolerability, dose limiting toxicity. Format: in vivo, human. From the text:
This study was the first human clinical trial of the compound of Formula I or a pharmaceutically acceptable salt or solvate thereof in humans having relapsed or refractory acute myeloid leukemia. The study was open labeled and designed to determine the safety, tolerability, dose limiting toxicity (DLT), pharmacokinetics and pharmacodynamics of escalating doses.
The study included adult patients with relapsed or refractory AML, or unsuitable for induction chemotherapy. Demographics and baseline characteristics were as follows: median age was 60 years, with a range of 23-86 years. Sixty percent of the patients were male. […] Eleven (15%) patients had prior allogeneic hematopoietic stem cell transplant (HSCT) and 13 (17%) patients had secondary AML with antecedent MDS or MDS/MPD. A total of 20 patients had FLT3 mutations (17 ITD and 3 D835), 43 were wild-type, and 13 were undetermined.
Patients with clinical benefit were allowed to continue for additional cycles at the discretion of the investigator. The protocol was subsequently amended to allow for continuous dosing of the compound starting at 200 mg on Day 1. In addition to patients included in the 200 mg (17 patients) and 300 mg (8 patients) continuous dosing cohort, there were at least 8 patients who, at the investigators discretion and per protocol, received continuous dosing after cycle 1 of intermittent dosing ranging from 19-187 days.
In addition, the safety profile was similar between patients receiving continuous dosing and those on the intermittent schedule. These included general disorders (e.g., pyrexia and fatigue), gastrointestinal disorders (e.g., nausea, diarrhea and vomiting) and hematologic disorders (eg, anemia, neutropenia and thrombocytopenia).
Out of the 76 patients treated with the compound in this study, 38 patients (50%) reported a total of 94 serious adverse events (SAEs) (defined as CTC Grade 3 or greater). The majority of the SAEs were considered by the investigator to be not related to study treatment. Only 6 patients (7.9%) reported SAEs that were initially considered to be related to treatment with the compound. These included one patient with lung infection, one patient with vomiting and one patient with nausea, anorexia, and upper abdominal pain. The investigator subsequently revised the event of anorexia for the patient to non-serious. In addition, three patients were noted by the site investigators using local ECG analysis to have reported Grade 3 QTc prolongation of >500 ms which was considered to be a dose-limiting toxicity for the study according to the protocol.
Based on the site reported dose-limiting toxicity of Grade 3 QTc prolongation, a detailed evaluation of the cardiac safety of the compound was conducted. As defined in the protocol, a single 12-lead electrocardiogram (ECG) had been performed using standardized equipment at the site at Visits 1 (screen), 2 (Baseline—at Hours 0, 2, and 4), 4 (Day 8 at Hours 0 and 4), and depending on the version of the protocol active at the time of assessment for each patient, 6 (Day 14 or 15), 7 (Day 21 or 22), 8 (Day 28 or 29), 9 (Day 36), 10 (Day 43), 11 (Day 50), 12 (Day 57) and at the end of the study or early termination. ECG assessments and interpretations initially were performed by the site's cardiologist or other qualified site personnel. To improve upon the accuracy of these locally-analyzed data, a central digitized blinded analysis of all ECGs collected to date was undertaken by a core ECG laboratory (EResearchTechnology in Philadelphia, Pa.). Due to some issues with readability, 72 patients (out of 76 patients enrolled in the study) were included in this analysis. […] The phase I study was not designed to define the ECG effects of the compound, which will be more closely monitored in the phase II study.

Series [3] relates to relapsed or refractory acute myeloid leukemia. Kind of series: Phase I clinical trial: efficacy, responses per modified Cheson criteria. Format: in vivo, human. How it is done:
The study was open labeled and designed to determine the safety, tolerability, dose limiting toxicity (DLT), pharmacokinetics and pharmacodynamics of escalating doses.
The study included adult patients with relapsed or refractory AML, or unsuitable for induction chemotherapy.
Patients with clinical benefit were allowed to continue for additional cycles at the discretion of the investigator. The protocol was subsequently amended to allow for continuous dosing of the compound starting at 200 mg on Day 1.
Preliminary response data was evaluated in all 76 patients treated with the compound.
Responses were defined per modified Cheson criteria.

Series [4] in a line: Animal toxicology studies. Format: in vivo.
The subject of series [5] is pSTAT5. Kind of series: Pharmacodynamics: pSTAT5 in patient samples. Format: in vivo, human. The following applies: subset of 17 patients, very preliminary. The source says:
STATS is a downstream signaling pathway activated by FLT3 following binding of FLT3 ligand leading to receptor dimerization, increased kinase activity and activation of downstream signaling pathways including STATS.

Setting [6] is: FLT3-ITD patients, 200 mg continuous dosing (n=5).
Setting [7] is: patients with FLT3-ITD mutation (n=17).

In general, half-life refers to the time in which the quantity being followed falls by half. Low readings indicate fast loss, high ones slow loss. Consider `CC(C)(C)c1cc(NC(=O)Nc2ccc(-c3cn4c(n3)sc3cc(OCCN5CCOCC5)ccc34)cc2)no1` [compound of formula I, N-(5-tert-butyl-isoxazol-3-yl)-N′-{4-[7-(2-morpholin-4-yl-ethoxy)imidazo[2,1-b][1,3]benzothiazol-2-yl]phenyl}urea], for which, in series [1] (human, in vivo), the “dose dependence of steady-state plasma exposure (AUC)” value is on record as “increased in a dose proportional manner”; the “peak and trough variation of plasma levels” value was “minimal peak and trough variation”; the “time to steady-state plasma exposure” value is ≤ 8 days. Also, the “coefficient of variation (CV %) for AUC0-24 at steady-state” value in series [1] (human, in vivo, 12 mg) is listed as 33%. For the same molecule, the “coefficient of variation (CV %) for AUC0-24 at steady-state” value in series [1] (human, in vivo, 450 mg) was 82%. Besides, the half-life in series [1] (human, in vivo, effective half-life) is ~36 h. Further, in series [1] (human, in vivo, po), the oral bioavailability result was “orally bioavailable”. The molecule further showed a half-life in series [1] (human, in vivo, terminal T1/2) of 31.2 h. Also, the 30-day treatment-related mortality entry in series [2] (76 patients, to date) is given as “no 30-day treatment-related mortality”. In addition, the “patients who died during the study” value in series [2] (all deaths disease or comorbidity associated, not treatment related) amounted to 12 patients. Further, in series [2] (both, human, in vivo), the “grade of the majority of treatment-related adverse events” value was “CTC Grade 1 and 2”; the “patients reporting SAEs initially considered related to treatment” value came to 7.9%; the “patients reporting serious adverse events (CTC Grade 3 or greater)” value amounted to 50%; the “total number of serious adverse events reported” value was found to be 94. Also, in series [2] (human, in vivo), the “liver or kidney abnormalities as drug-related serious adverse events (BUN, creatinine, ALT, AST, ALP, bilirubin)” value is recorded as “no liver or kidney abnormalities” and the “patients with Grade 3 QTc prolongation of >500 ms (dose-limiting toxicity)” value was “three”. In addition, the “bone marrow responses within the first 29 days of treatment (Cycle 1)” value in series [3] (15/22 responders) turned out to be 68%. In series [3] (setting [6]), this molecule registered a CR of 1 patients, a CRi of 1 patients, a CRp of 1 patients and a PR of 2 patients. Besides, the “overall response rate (CR+CRp+CRi+PR)” value in series [3] (FLT3-ITD patients, 200 mg continuous dosing, 5/5) stood at 100%. For the same molecule, in series [3] (all 76 patients), the “CR with complete hematologic recovery” value is 2 patients; the “CR with incomplete platelet and neutrophil recovery (CRi)” value turned out to be 4 patients; the “CR with incomplete platelet recovery (CRp)” value was 4 patients; the “patients achieving complete remission (CR, all types)” value was “Ten”. In addition, in series [3] (all 76 patients), the “patients with partial remission (PR)” value was “Fourteen”. In addition, the “peripheral blast reduction (>25% at baseline with >50% decrease post-treatment to 0-25%)” value in series [3] (all patients) is on record as “most patients had a peripheral blast reduction”. In addition, the “overall response (CR+PR)” value in series [3] (all patients, 12 mg-450 mg, 24/76) turned out to be 32%. For the same molecule, in series [3] (of the remaining 7 responders), the “patients reporting a response after Cycle 2” value is listed as 3 patients and the “patients reporting a response within 57 days (Cycle 2)” value came out at 4 patients. In addition, in series [3] (setting [7]), the CR was 1 patients, the CRi was 3 patients, the CRp is on record as 1 patients and the PR is recorded as 6 patients. The same molecule gave an overall response rate in series [3] (patients with FLT3-ITD mutation, 11/17) of 65%. For the same molecule, the “median duration of remission” value in series [3] (range, 4 to 61+ weeks) worked out at 14.1 weeks. The target organ toxicity result in series [4] is on record as “Bone marrow hypocellularity”. The “effect on pSTAT5” value in series [5] was “dose-dependent effect is consistent with that observed with pFLT3”.
For `CC(C)(CO)c1cc(NC(=O)Nc2ccc(-c3cn4c(n3)sc3cc(OCCN5CCOCC5)ccc34)cc2)no1` [compound of formula II], in series [1] (human plasma, n=60), the “average steady state plasma ratio of formula II/I” value was 0.4 and the “plasma ratio of compounds of formula II/I, highest in one patient” value is ≤ 3.14. In series [1] (patients dosed at 200 mg of the compound of formula I), the steady-state plasma level is listed as ~300 ng/mL.
